# In patent US20190330197A1, “SUBSTITUTED NAPHTHALENE DIIMIDES AND THEIR USE” (UCL Business PLC, priority 2015, published 2019):
# Experiments:
# [1] = test system: Hsp90A sequence from the HSP90 promoter; assay: FRET quadruplex stabilisation assay, Hsp90A; type: binding; details: compound at 1 μM, 60 mM potassium cacodylate buffer pH 7.4
# From the text: (§1) The ability of the naphthalene diimide compounds to stabilize quadruplex DNA sequences was investigated using a fluorescence resonance energy transfer (FRET) assay modified to be used as a high-throughput screen in a 96-well format. Several quadruplex sequences were studied (including the human telomeric G-quadruplex DNA sequence 5′-FAM-d(GGG[TTAGGG]3)-TAMRA-3′ and the duplex sequence 5′-FAM-d[…]-HEG-[…]-TAMRA-3′ (HEG linker: [(—CH2—CH2—O—)6.
# (§2) The labelled oligonucleotides have attached to them the donor fluorophore FAM: 6-carboxyfluorescein and the acceptor fluorophore TAMRA: 6-carboxytetramethylrhodamine. The FRET probe sequences were diluted from stock to the correct concentration (400 nM) in a 60 mM potassium cacodylate buffer (pH 7.4) and then annealed by heating to 85° C. for 10 min, followed by cooling to room temperature in the heating block. The compound was stored as a 10 mM stock solution in DMSO; final solutions (at 2× concentration) were prepared using 10 mM HCl in the initial 1:10 dilution, after which 60 mM potassium cacodylate buffer (pH 7.4) was used in all subsequent steps. The maximum HCl concentration in the reaction volume (at a ligand concentration of 20 μM) is thus 200 μM, well within the range of the buffer used. Relevant controls were also performed to check for interference with the assay. 96-Well plates (MJ Research, Waltham, Mass.) were prepared by aliquoting 50 μl of the annealed DNA into each well, followed by 50 μl of the compound solutions. Measurements were made on a DNA Engine Opticon (MJ Research) with excitation at 450-495 nm and detection at 515-545 nm. Fluorescence readings were taken at intervals of 0.5° C. in the range 30-100° C., with a constant temperature being maintained for 30 s prior to each reading to ensure a stable value. Final analysis of the data was carried out using a script written in the program Origin 7.0 (OriginLab Corp., Northampton, Mass.). The advanced curve-fitting function in Origin 7.0 was used for calculation of ΔTm values. All determinations were performed in triplicate or better. Esds in ΔTm are ±0.1° C.
# [2] = test system: Hsp90B sequence from the HSP90 promoter; assay: FRET quadruplex stabilisation assay, Hsp90B; type: binding; details: compound at 1 μM, 60 mM potassium cacodylate buffer pH 7.4
# From the text: as §1, §2
# [3] = test system: Kras21 sequence from the promoter region of the kras gene; assay: FRET quadruplex stabilisation assay, Kras21; type: binding; details: compound at 1 μM, 60 mM potassium cacodylate buffer pH 7.4
# From the text: as §1, §2
# [4] = test system: Kras32 sequence from the promoter region of the kras gene; assay: FRET quadruplex stabilisation assay, Kras32; type: binding; details: compound at 1 μM, 60 mM potassium cacodylate buffer pH 7.4
# From the text: as §1, §2
# [5] = test system: Bcl-2 sequence from the promoter region of the bcl-2 gene; assay: FRET quadruplex stabilisation assay, Bcl-2; type: binding; details: compound at 1 μM, 60 mM potassium cacodylate buffer pH 7.4
# From the text: as §1, §2
# [6] = test system: Tloop (representing duplex DNA); assay: FRET assay, Tloop duplex DNA; type: binding; details: compound at 1 μM, 60 mM potassium cacodylate buffer pH 7.4
# From the text: as §1, §2
# [7] = test system: A549 (lung cancer) cells; assay: SRB growth inhibition, A549; type: cell-based, human; details: 96 hr, SRB assay; read-out: short-term 96 hr IC50 A549
# Method: (§3) Human cancer cell lines and the somatic human cell line WI-38 (lung fibroblast) were purchased from the American Type Culture Collection. Cell lines were maintained in appropriate medium supplemented with 10% foetal bovine serum (Invitrogen, UK), 2 mM L-glutamine (Invitrogen, Netherlands), and other components as specified by the suppliers. Cell lines were maintained at 37° C., 5% CO2 and routinely passaged. Drugs were dissolved in DMSO and filtered through 0.22 μm pore-size filter units before addition to cell line appropriate media. Cellular growth inhibition was measured using the sulforhodamine B (SRB) assay in 96 well plates. Fifty percent inhibitory concentrations (IC50) were determined by taking the mean absorbance at 540 nm for each drug concentration expressed as a percentage of the absorbance of untreated control wells.
# [8] = test system: Panc1 (pancreatic cancer) cells; assay: SRB growth inhibition, Panc1; type: cell-based, human; details: 96 hr, SRB assay; read-out: short-term 96 hr IC50 Panc1
# Method: as §3
# [9] = test system: MIA-PaCa2 cells; assay: RNA-seq gene expression changes in treated MIA-PaCa2 cells; type: cell-based, human
# Method: Cell lines were purchased from American Type Culture Collection (ATCC) and stored under liquid nitrogen. Cells were maintained in monolayer culture T75 (75 cm2 flasks) in humidified 5% CO2 atmosphere at 37° C. Cells were maintained in appropriate medium according to (ATCC) with necessary supplements including L-glutamine (Thermo Fisher Scientific Cat. No. 25030024), penicillin-streptomycin solution Hybrid-Max (Sigma Cat. No. P7539) and fetal bovine serum (FBS, Thermo Fisher Scientific Cat. No. 10270106). Cells were passaged at 80-90% confluence.
# MIA-PaCa2 cells were seeded 48 hours prior to incubation, in MatTek 35 mm glass bottom dishes. Three incubation times for the compound 4c were examined: 0, 6 and 24 hrs. For RNA extraction cells (a maximum of 1×10^7 cells) were harvested by trypsinization following rinsing the cells twice in 1×PBS (without calcium chloride and magnesium chloride, purchased from Sigma Cat. No. D1408). After neutralising the medium with an equal volume of medium to trypsin cells were transferred to a sterile centrifuge tube for centrifugation for 4 minutes at 400 rpm at room temperate in order to pellet the cells. After removing the medium and trypsin following centrifugation RNA was extracted from the pellet of cells using the RNeasy Mini Kit by QIAGEN (Cat. no. 74104). RNA quality was checked by use of the NanoDrop 2000 Spectrophotometer, and a minimum quantity of ca 500 ng of RNA at >25 ng/μl concentration per replicate was verified.
# RNA-Seq sequencing studies were performed by the UCL Genomics Facility using an Illumina NextSeq 500 instrument, and data obtained on RNA expression levels of all individual genes in the genomes of the cells analysed, relative to the control cells at 0 hr exposure. Four replicates were used for each time-point, thus a total of 12 individual genomes were analysed and statistics obtained for each time-point.
# Data has been taken from RNA-seq data from treated MIA-PaCa2 cells, showing log-fold expression changes for genes selected from those showing the most significant down-regulation of expression as measured by RNA levels.
compound,measurement,setting,value
"O=C1c2ccc3c4c(c(NCCN5CCCC5)cc(c24)C(=O)N1CCCN1CCOCC1)C(=O)N(CCCN1CCOCC1)C3=O [Compound 4c, 2,7-bis(3-morpholinopropyl)-4-((2-(pyrrolidin-1-yl)ethyl)amino)benzo[Imn][3,8]phenanthroline-1,3,6,8(2H,7H)-tetraone]",ΔTm Hsp90A,[1],15.7 °C
same,ΔTm Hsp90B,[2],12.7 °C
same,ΔTm Kras21,[3],11.0 °C
same,ΔTm Kras32,[4],9.6 °C
same,ΔTm Bcl-2,[5],13.3 °C
same,ΔTm Tloop,[6],0.6 °C
same,IC50,[7],24 nM
same,IC50,[8],22 nM
same,AVIL log-fold change relative to t = 0 hrs,[9]; 4c at 6 hrs,3.0
same,CBFA2T3 log-fold change relative to t = 0 hrs,[9]; 4c at 6 hrs,−2.8
same,FLG log-fold change relative to t = 0 hrs,[9]; 4c at 6 hrs,4.0
same,ITGA1 log-fold change relative to t = 0 hrs,[9]; 4c at 6 hrs,4.5
same,ITGAM log-fold change relative to t = 0 hrs,[9]; 4c at 6 hrs,7.0
same,PRDM16 log-fold change relative to t = 0 hrs,[9]; 4c at 6 hrs,−2.8
same,SHANK2 log-fold change relative to t = 0 hrs,[9]; 4c at 6 hrs,−1.9
same,ST14 log-fold change relative to t = 0 hrs,[9]; 4c at 6 hrs,5.6
same,TP73 log-fold change relative to t = 0 hrs,[9]; 4c at 6 hrs,−2.4
same,TREX1 log-fold change relative to t = 0 hrs,[9]; 4c at 6 hrs,−8.3
same,ZNF469 log-fold change relative to t = 0 hrs,[9]; 4c at 6 hrs,−3.4
same,AVIL log-fold change relative to t = 0 hrs,[9]; 4c at 24 hrs,0.5
same,CBFA2T3 log-fold change relative to t = 0 hrs,[9]; 4c at 24 hrs,−2.8
same,FLG log-fold change relative to t = 0 hrs,[9]; 4c at 24 hrs,0.7
same,ITGA1 log-fold change relative to t = 0 hrs,[9]; 4c at 24 hrs,0.4
same,ITGAM log-fold change relative to t = 0 hrs,[9]; 4c at 24 hrs,2.6
same,PRDM16 log-fold change relative to t = 0 hrs,[9]; 4c at 24 hrs,−3.5
same,SHANK2 log-fold change relative to t = 0 hrs,[9]; 4c at 24 hrs,−2.0
same,ST14 log-fold change relative to t = 0 hrs,[9]; 4c at 24 hrs,2.5
same,TP73 log-fold change relative to t = 0 hrs,[9]; 4c at 24 hrs,−1.2
same,TREX1 log-fold change relative to t = 0 hrs,[9]; 4c at 24 hrs,−2.5
same,ZNF469 log-fold change relative to t = 0 hrs,[9]; 4c at 24 hrs,−3.2
same,extent of gene expression changes,[9]; treated MIA-PaCa2 cells,changes in gene expression in a comparatively small number of genes
